Assay results published in US20040081688A1, “Amphiphilic lipid nanoparticles for peptide and/or protein incorporation” (priority 2000, published 2004).

Key:
[1] = Antide semi-quantitative solubility evaluation (maximum loading) in lipids; format: physicochemical; details: Antide maximum loading in the lipid named in the row
[2] = Partition coefficient octanol/water; format: physicochemical; details: 24 hours at room temperature, ratio of drug concentration in organic and water phase by RP-HPLC
Protocol: Partition coefficient: it was determined using octanol as organic phase and water as hydrophilic phase. The two phases were first saturated with each other for 24 hours at room temperature. Antide was then dissolved in the water phase at a concentration well below saturation. An equal volume of organic phase was subsequently added to the water phase and the mixture was kept under stirring for 24 hours at room temperature. Antide concentration in the two phases was determined by RP-HPLC and the partition coefficient was obtained from the ratio between the drug concentration in organic and water phase.
The resulting octanol/water coefficient was 8.56·10^−2

In the case of `CCCCCCCCCCCCCCCCO` [Cetil alcohol], the “Antide loading (%)” value [1] is reported as 3.7 × 10^−2 - not soluble %.
In the case of “N-Ac-D-2-Nal, D-pClPhe, D-3-Pal, Ser, NicLys, D-NicLys, Leu, Ilys, Pro, D-Ala, NH2 [Antide]”, the octanol/water coefficient [2] is reported as 8.56·10^−2.
